Key:
Settings in all cases: incubation time: 72 h
BT-474 [1] = assay: normalised response (% of control), CellTox Green; higher = less cell death (100 = DMSO, 0 = benzethonium chloride kill control)
Procedure, shortened: (§1)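 Breast cancer cell lines, seeded at 20 µl suspension per well, were incubated for 72 h in 384-well plates containing compound at 5 concentrations. These concentrations rose in 10-fold steps over a 10,000-fold range set for each compound. CellTox Green fluorescence (485/520 nm) was read, then CellTiter-Glo luminescence after 10 min at room temperature, and each plate was normalised to 0.1 % DMSO (100) and a positive kill control (0). Values are normalised signals, each at one concentration.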

BT-549 [2] = assay: as above
Procedure, shortened: as §1

CAL-120 [3] = assay: as above
Procedure, shortened: as §1

CAL-148 [4] = assay: as above
Procedure, shortened: as §1

CAL-51 [5] = assay: as above
Procedure, shortened: as §1

CAL-85-1 [6] = assay: as above
Procedure, shortened: as §1

DU-4475 [7] = assay: as above
Procedure, shortened: as §1

HCC1143 [8] = assay: as above
Procedure, shortened: as §1

HCC1599 [9] = assay: as above
Procedure, shortened: as §1

HCC1937 [10] = assay: as above
Procedure, shortened: as §1

HDQ-P1 [11] = assay: as above
Procedure, shortened: as §1

Hs578T [12] = assay: as above
Procedure, shortened: as §1

MCF-10A [13] = assay: as above
Procedure, shortened: as §1

MDA-MB-231 [14] = assay: as above
Procedure, shortened: as §1

MDA-MB-436 [15] = assay: as above
Procedure, shortened: as §1

MDA-MB-453 [16] = assay: as above
Procedure, shortened: as §1

MDA-MB-468 [17] = assay: as above
Procedure, shortened: as §1

MFM-223 [18] = assay: as above
Procedure, shortened: as §1

BT-474 [19] = assay: normalised response (% of control), CellTiter-Glo; higher = more viable cells (100 = DMSO, 0 = benzethonium chloride kill control)
Procedure, shortened: as §1

BT-549 [20] = assay: as above
Procedure, shortened: as §1

CAL-120 [21] = assay: as above
Procedure, shortened: as §1

CAL-148 [22] = assay: as above
Procedure, shortened: as §1

CAL-51 [23] = assay: as above
Procedure, shortened: as §1

CAL-85-1 [24] = assay: as above
Procedure, shortened: as §1

DU-4475 [25] = assay: as above
Procedure, shortened: as §1

HCC1143 [26] = assay: as above
Procedure, shortened: as §1

HCC1599 [27] = assay: as above
Procedure, shortened: as §1

HCC1937 [28] = assay: as above
Procedure, shortened: as §1

HDQ-P1 [29] = assay: as above
Procedure, shortened: as §1

Hs578T [30] = assay: as above
Procedure, shortened: as §1

MCF-10A [31] = assay: as above
Procedure, shortened: as §1

MDA-MB-231 [32] = assay: as above
Procedure, shortened: as §1

MDA-MB-436 [33] = assay: as above
Procedure, shortened: as §1

MDA-MB-453 [34] = assay: as above
Procedure, shortened: as §1

MDA-MB-468 [35] = assay: as above
Procedure, shortened: as §1

MFM-223 [36] = assay: as above
Procedure, shortened: as §1

SK-BR-3 = assay: as above
Procedure, shortened: as §1

SMILES | normalised response (BT-474 [1]) | normalised response (BT-549 [2]) | normalised response (CAL-120 [3]) | normalised response (CAL-148 [4]) | normalised response (CAL-51 [5]) | normalised response (CAL-85-1 [6]) | normalised response (DU-4475 [7]) | normalised response (HCC1143 [8]) | normalised response (HCC1599 [9]) | normalised response (HCC1937 [10]) | normalised response (HDQ-P1 [11]) | normalised response (Hs578T [12]) | normalised response (MCF-10A [13]) | normalised response (MDA-MB-231 [14]) | normalised response (MDA-MB-436 [15]) | normalised response (MDA-MB-453 [16]) | normalised response (MDA-MB-468 [17]) | normalised response (MFM-223 [18]) | normalised response (BT-474 [19]) | normalised response (BT-549 [20]) | normalised response (CAL-120 [21]) | normalised response (CAL-148 [22]) | normalised response (CAL-51 [23]) | normalised response (CAL-85-1 [24]) | normalised response (DU-4475 [25]) | normalised response (HCC1143 [26]) | normalised response (HCC1599 [27]) | normalised response (HCC1937 [28]) | normalised response (HDQ-P1 [29]) | normalised response (Hs578T [30]) | normalised response (MCF-10A [31]) | normalised response (MDA-MB-231 [32]) | normalised response (MDA-MB-436 [33]) | normalised response (MDA-MB-453 [34]) | normalised response (MDA-MB-468 [35]) | normalised response (MFM-223 [36]) | normalised response (SK-BR-3)
COC(=O)C[C@](O)(CCCC(C)(C)O)C(=O)O[C@@H]1C(OC)=C[C@]23CCCN2CCc2cc4c(cc2[C@H]13)OCO4 [Omacetaxine] (100 nM) | 98.3% | 103% | 99.4% | 83.4% | 121% | 10.6% | 97.5% | 72.7% | 112% | 124% | 100% | 38.3% | 97.1% | 92.3% | 77.6% | 110% | 113% | 48.9% | 74.6% | 18.8% | 59% | 40.9% | 19.9% | 6.28% | 4.3% | 44.4% | 24.4% | 41.1% | 31% | 28.2% | 61.5% | 65% | 20% | 56.4% | 15.3% | 55.4% | 44.9%
CC(=O)O[C@H]1C(=O)[C@@]2(C)[C@H]([C@H](OC(=O)c3ccccc3)[C@]3(O)C[C@H](OC(=O)[C@H](O)[C@@H](NC(=O)c4ccccc4)c4ccccc4)C(C)=C1C3(C)C)[C@]1(OC(C)=O)CO[C@@H]1C[C@@H]2O [Paclitaxel] (10 nM) | 74.6% | 72.5% | 89.9% | 39.4% | 19.9% | 20.9% | 97.6% | 88.4% | 91.5% | 86.7% | 87.9% | 34.1% | 78.9% | 41% | -40.2% | 92.9% | 41.3% | 59.4% | 60.3% | 34% | 70.1% | 42.7% | 52.7% | 31% | 89% | 42.3% | 80.5% | 68.2% | 69.1% | 43.3% | 52.6% | 62.9% | 43% | 80.2% | 28.7% | 61.6% | 16.9%
O=C(c1ccc(OCCN2CCCCC2)cc1)c1c(-c2ccc(O)cc2)sc2cc(O)ccc12 [Raloxifene] (100 nM) | 104% | 92.5% | 98.8% | 101% | 97.2% | 98.3% | 103% | 99.7% | 92.4% | 108% | 90.1% | 94.3% | 93.2% | 98.8% | 107% | 107% | 102% | 91.7% | 101% | 98.3% | 99.1% | 107% | 87.8% | 104% | 100% | 109% | 100% | 104% | 106% | 106% | 103% | 105% | 99.9% | 99.7% | 98.7% | 104% | 104%
COc1cc(Nc2ncc(F)c(Nc3ccc4c(n3)NC(=O)C(C)(C)O4)n2)cc(OC)c1OC [Tamatinib] (100 nM) | 101% | 94.5% | 103% | 73.6% | 115% | 113% | 104% | 90.7% | 99.2% | 93.6% | 107% | 112% | 107% | 105% | 104% | 109% | 83.2% | 91.3% | 101% | 98.9% | 96.2% | 112% | 104% | 96.7% | 105% | 105% | 123% | 103% | 97.9% | 102% | 104% | 108% | 99% | 108% | 93.8% | 110% | 111%
C[C@@H]1CCN(C(=O)CC#N)C[C@@H]1N(C)c1ncnc2[nH]ccc12 [Tofacitinib] (50 nM) | 103% | 94.2% | 99.7% | 90.6% | 113% | 99.7% | 102% | 104% | 116% | 123% | 114% | 93.4% | 105% | 104% | 97.8% | 103% | 127% | 107% | 102% | 104% | 99.8% | 114% | 88.1% | 109% | 106% | 106% | 105% | 96.5% | 104% | 109% | 101% | 104% | 98.7% | 102% | 110% | 110% | 104%
FC(F)c1nc2ccccc2n1-c1nc(N2CCOCC2)nc(N2CCOCC2)n1 [ZSTK474] (100 nM) | 102% | 111% | 102% | 100% | 102% | 108% | 105% | 115% | 101% | 64.3% | 101% | 102% | 85% | 110% | 101% | 85.6% | 97.3% | 102% | 85.3% | 80.4% | 101% | 94.7% | 92.6% | 99% | 97% | 99.9% | 98% | 87.7% | 83.4% | 92.4% | 93% | 91.1% | 88.5% | 86.8% | 96.9% | 97% | 72.9%

Source: the supplement of paper PMC4862054
